Measurements taken from article PMC8191784 (2021).

Key:
[1] = system: wild-type add aptamer, SHAPE transcript (RNA, riboswitch) GCGCUUCAUAUAAUCCUAAUGAUAUGGUUUGGGAGUUUCUACCAAGAGCCUUAAACUCUUGAUUAUGAAGUAAUUUAUCGUCACGGUGCAUCUACCAUC; assay: SHAPE (NMIA) probing; conditions: NaCl, 0-10 mM MgCl2; K-HEPES pH 8.0, 37 °C; 2 mM DAP
[2] = system: L2 mutant (U28A, A29U, G31C, G32C), vector P2-P3 (L2-L3) (RNA, riboswitch, 5-aminoallyl-U at the two dye sites (underlined positions not given)) GCGCGAGCGUUGUAUAAUCCUAAUGAAUUCCUUUGGGAGUUUCUACCAAGAGCCUUAAACUCUUGAUUACAACGCUCGCGC; assay: smFRET; conditions: 10 mM Tris-HCl pH 8.0
[3] = system: wild-type add aptamer, vector P1-P2 (RNA, riboswitch, 5-aminoallyl-U at the two dye sites (underlined positions not given)) GCGCGAGCGUUGUAUAAUCCUAAUGAUAUGGUUUGGGAGUUUCUACCAAGAGCCUUAAACUCUUGAUUACAAUGCUCGCGC; assay: smFRET; conditions: 10 mM NaCl, 10 mM MgCl2; 10 mM Tris-HCl pH 8.0; 1 mM DAP
[4] = system: L3 mutant, vector P2-P3 (L2-L3) (RNA, riboswitch, 5-aminoallyl-U at the two dye sites (underlined positions not given)) GCGCGAGCGUUGUAUAAUCCUAAUGAUAUGGUUUGGGAGUUUCUACCAAGAGGGUAUAACUCUUGAUUACAACGCUCGCGC; assay: smFRET; conditions: Na+, Mg2+ (see Figure S3); 10 mM Tris-HCl pH 8.0
[5] = system: wild-type add aptamer, vector J2/3-P1 (core-P1) (RNA, riboswitch, 5-aminoallyl-U at residue 42 (aptamer numbering) and at a P1 site (position not visible)) GCGCGAGCGUUGUAUAAUCCUAAUGAUAUGGUUUGGGAGUUUCUACCAAGAGCCUUAAACUCUUGAUUACAACGCUCGCGC; assay: smFRET; conditions: 10 mM NaCl, 10 mM MgCl2; 10 mM Tris-HCl pH 8.0; 1 mM DAP
[6] = system: L2 mutant, vector P1-P2 (RNA, riboswitch, 5-aminoallyl-U at the two dye sites (underlined positions not given)) GCGCGAGCGUUGUAUAAUCCUAAUGAAUUCCUUUGGGAGUUUCUACCAAGAGCCUUAAACUCUUGAUUACAAUGCUCGCGC; assay: smFRET; conditions: 10 mM NaCl, 10 mM MgCl2; 10 mM Tris-HCl pH 8.0; 1 mM DAP
[7] = system: wild-type add aptamer, vector P2-P3 (L2-L3) (RNA, riboswitch, 5-aminoallyl-U at the two dye sites (underlined positions not given)) GCGCGAGCGUUGUAUAAUCCUAAUGAUAUGGUUUGGGAGUUUCUACCAAGAGCCUUAAACUCUUGAUUACAACGCUCGCGC; assay: smFRET
[8] = system: L2 mutant, vector J2/3-P1 (core-P1) (RNA, riboswitch, 5-aminoallyl-U at residue 42 (aptamer numbering) and at a P1 site (position not visible)) GCGCGAGCGUUGUAUAAUCCUAAUGAAUUCCUUUGGGAGUUUCUACCAAGAGCCUUAAACUCUUGAUUACAACGCUCGCGC; assay: smFRET; conditions: 10 mM NaCl, 10 mM MgCl2; 10 mM Tris-HCl pH 8.0; 1 mM DAP
[9] = system: L2 mutant, vector P1-P3 (RNA, riboswitch, 5-aminoallyl-U at the two dye sites (underlined positions not given)) GCGCGAGCGUUGUAUAAUCCUAAUGAAUUCCUUUGGGAGUUUCUACCAAGAGCCUUAAACUCUUGAUUACAACGCUCGCGC; assay: smFRET; conditions: 10 mM NaCl, 10 mM MgCl2; 10 mM Tris-HCl pH 8.0; 1 mM DAP
[10] = system: L2 mutant aptamer, SHAPE transcript (RNA, riboswitch) GCGCUUCAUAUAAUCCUAAUGAAUUCCUUUGGGAGUUUCUACCAAGAGCCUUAAACUCUUGAUUAUGAAGUAAUUUAUCGUCACGGUGCAUCUACCAUC; assay: SHAPE (NMIA) probing; conditions: NaCl, 0-10 mM MgCl2; K-HEPES pH 8.0, 37 °C; 2 mM DAP

SMILES | binding [1] | binding ([2]; 10 mM Na+, no Mg2+, aptamer stays in U state without Mg2+) | binding ([2]; 10 mM NaCl, 10 mM MgCl2, 1 mM DAP) | binding [3] | binding [4] | binding [5] | binding [6] | binding ([7]; 10 mM NaCl, 10 mM MgCl2, 10 mM Tris-HCl pH 8.0, 1 mM DAP, FRET same as Mg2+ alone) | binding [8] | binding [9] | binding [10] | binding ([2]; Na+, Mg2+ (see Figure S2), adenine concentration varied) | binding ([7]; 200 mM NaCl, 3 M urea, adenine titration)
Nc1nc(N)c2[nH]cnc2n1 | yes | no | yes | yes | yes | yes | yes | yes | yes | yes | yes |  | 
Nc1ncnc2[nH]cnc12 |  |  |  |  |  |  |  |  |  |  |  | yes | yes
